BindingDB's records for doi:10.1016/j.bmcl.2009.07.031 (Merck Research Laboratory, 2009)

What was measured:
[1] = Inhibition of HIV1 reverse transcriptase Y181C mutant by SPA assay
[2] = Inhibition of HIV1 reverse transcriptase by SPA assay

Compound	IC50 [1]	IC50 [2]
NS(=O)(=O)c1ccc(NC(=O)CSC(=O)N2CCCc3cccc(Cl)c32)c(Cl)c1	31 nM	2 nM
N#Cc1ccc(NC(=O)CSC(=O)N2CCCc3cc(Cl)cc(Cl)c32)c(Cl)c1	95 nM	7 nM
NS(=O)(=O)c1ccc(NC(=O)CNC(=O)N2CCCc3cc(Cl)cc(Cl)c32)c(Cl)c1	–	336 nM
O=C(CSC(=O)N1CCCc2cc(Cl)cc(Cl)c21)Nc1ccc(C(=O)NCc2ccccc2)cc1Cl	4 nM	2 nM
Cc1cc(C)c(N(C)C(=O)SCC(=O)Nc2ccc(S(N)(=O)=O)cc2Cl)c(C)c1	80 nM	8 nM
NS(=O)(=O)c1ccc(NC(=O)CCC(=O)N2CCCc3cc(Cl)cc(Cl)c32)c(Cl)c1	–	194 nM
Cc1ccc2c(c1)CCCN2C(=O)SCC(=O)Nc1ccc(S(N)(=O)=O)cc1Cl	1300 nM	–
CS(=O)(=O)c1ccc(NC(=O)CSC(=O)N2CCCc3cc(Cl)cc(Cl)c32)c(Cl)c1	11 nM	4 nM
NS(=O)(=O)c1ccc(NC(=O)CSC(=O)N2CCCc3cc(Cl)ccc32)c(Cl)c1	–	8 nM
NS(=O)(=O)c1ccc(NC(=O)CSC(=O)N2CCCc3cc(Cl)cc(Cl)c32)c(Cl)c1	4 nM	–
Cc1cccc2c1N(C(=O)SCC(=O)Nc1ccc(S(N)(=O)=O)cc1Cl)CCC2	61 nM	6 nM
O=C(CSC(=O)N1CCCc2cc(Cl)cc(Cl)c21)Nc1ccccc1Cl	175 nM	4 nM
NS(=O)(=O)c1ccc(NC(=O)COC(=O)N2CCCc3cc(Cl)cc(Cl)c32)c(Cl)c1	116 nM	19 nM
NCCCNC(=O)c1ccc(NC(=O)CSC(=O)N2CCCc3cc(Cl)cc(Cl)c32)c(Cl)c1	7 nM	2 nM
